We go through two molecules from patent US9434711B2 (Janssen Pharmaceutica, NV, priority 2007, dated 2016).

Read-outs that look alike come from different tables or passages of the source.

In test [1] the target is canine TRPM8 (Canis lupus familiaris, UniProt Q1A7N1). Description: In Vitro Canine TRPM8 Functional Assay (Ca2+ fluorescence, icilin activation). Type of test: cell-based. Particulars: for IC50: HEK293 cells stably expressing canine TRPM8, icilin activation, eight-point dose-response, read-out: IC50; for inhibition at 0.2 µM: compound at 0.2 μM, canine TRPM8, icilin activation, read-out: % Inh @ 0.2. In a few lines:
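Cells (HEK293, stable canine TRPM8) are seeded 24 h before assay. They are then dye-loaded with Calcium 3 at 37 °C followed by room temperature. Compound is added and monitored for 5 min, after which icilin (~80% maximal response) is added.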

The target of test [2] is human TRPM8 (Homo sapiens (Human), UniProt Q7Z2W7). The test can be described thus: In Vitro Human TRPM8 Functional Assay (Ca2+ fluorescence, icilin EC80). The test is classed as cell-based. Particulars: read-out: hTRPM8 IC50. As to the method:
HEK293 cells are routinely grown as monolayer in Dulbecco's minimum essential medium supplemented with 10% FBS, 1 mM L-glutamine, 100 units/mL penicillin and 100 ug/mL streptomycin. Cells are maintained in 5% CO2 at 37° C.
For functional expression of TRPM8, the full-length cDNA encoding human and rat TRPM8 are subcloned into pCI-NEO mammalian expression vectors. The expression constructs are transiently transfected into HEK293 cells according to the FuGENE 6 Transfection Reagent® (ROCHE) instructions. Within twenty-four hours, transiently transfected cells are harvested and either seeded directly into assay plate or cryopreserved for future usage. […]
Maximal fluorescence intensity (FI) achieved upon addition of icilin is exported from the FDSS and further analyzed using GraphPad Prism 3.02 (Graph Pad Software Inc., CA, U.S.A.) where data is normalized to percent of maximal response. The dose response curves from the average of quadruplicate wells for each data point are analyzed by using nonlinear regression of either sigmoidal dose response or sigmoidal dose response (variable slope). Finally, the IC50 values are calculated with the best-fit dose curve determined by Prism.

Test [3] has as its system Male Sprague Dawley rats. The test can be described thus: Chronic Constriction Injury (CCI)-Induced Model of Neuropathic Pain, Acetone-Induced Hypersensitivity. As to conditions: Rattus norvegicus, po, Na salt form; for inhibition in vivo at 3 mg/kg: 3 mg/kg p.o.; for inhibition in vivo at 10 mg/kg: 10 mg/kg p.o.; for inhibition in vivo at 17.8 mg/kg: 17.8 mg/kg p.o.; for inhibition in vivo at 30 mg/kg: 30 mg/kg p.o.; for inhibition in vivo at 56 mg/kg: 56 mg/kg p.o. The test is classed as in vivo, rat.

[4] abbreviates: 4 h, vehicle HPbCD, Water, pretreatment 4 hr, read-out: Percent Inhibition.
Where [5] appears, read: 4 h, HPbCD, pretreatment 4 hr, read-out: Percent Inhibition.
Where [6] appears, read: 4 h, Water, pretreatment 4 hr, read-out: Percent Inhibition.

canine TRPM8, sequence (Q1A7N1 1-1104): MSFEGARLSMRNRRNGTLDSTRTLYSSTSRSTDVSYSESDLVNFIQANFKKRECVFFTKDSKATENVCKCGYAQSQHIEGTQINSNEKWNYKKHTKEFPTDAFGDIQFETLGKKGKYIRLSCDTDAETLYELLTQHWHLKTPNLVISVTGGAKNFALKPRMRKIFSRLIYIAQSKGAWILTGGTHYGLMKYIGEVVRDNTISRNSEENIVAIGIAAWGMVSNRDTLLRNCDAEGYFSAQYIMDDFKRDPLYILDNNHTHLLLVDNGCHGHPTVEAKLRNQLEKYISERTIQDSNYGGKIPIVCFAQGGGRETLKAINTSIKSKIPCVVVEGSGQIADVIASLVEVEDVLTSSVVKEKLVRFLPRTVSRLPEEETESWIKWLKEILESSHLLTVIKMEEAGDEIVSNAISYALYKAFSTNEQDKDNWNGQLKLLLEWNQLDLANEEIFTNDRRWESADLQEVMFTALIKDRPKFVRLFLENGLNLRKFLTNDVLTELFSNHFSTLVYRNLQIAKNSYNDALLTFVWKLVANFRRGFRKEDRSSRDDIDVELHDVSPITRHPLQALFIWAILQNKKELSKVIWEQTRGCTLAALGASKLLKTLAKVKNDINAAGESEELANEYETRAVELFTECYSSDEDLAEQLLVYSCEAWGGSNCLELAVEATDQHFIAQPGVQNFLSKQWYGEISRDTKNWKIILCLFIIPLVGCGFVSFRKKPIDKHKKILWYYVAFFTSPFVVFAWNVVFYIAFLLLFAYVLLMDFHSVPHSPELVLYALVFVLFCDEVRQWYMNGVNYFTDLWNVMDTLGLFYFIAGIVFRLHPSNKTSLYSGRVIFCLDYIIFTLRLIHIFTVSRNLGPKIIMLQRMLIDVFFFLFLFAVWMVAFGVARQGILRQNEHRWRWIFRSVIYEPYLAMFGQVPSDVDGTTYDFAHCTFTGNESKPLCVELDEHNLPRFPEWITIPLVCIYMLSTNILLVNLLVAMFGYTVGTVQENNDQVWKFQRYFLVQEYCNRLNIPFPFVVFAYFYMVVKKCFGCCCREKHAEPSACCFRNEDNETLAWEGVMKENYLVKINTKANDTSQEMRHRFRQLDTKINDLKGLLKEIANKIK
human TRPM8, sequence (Q7Z2W7 whole entry): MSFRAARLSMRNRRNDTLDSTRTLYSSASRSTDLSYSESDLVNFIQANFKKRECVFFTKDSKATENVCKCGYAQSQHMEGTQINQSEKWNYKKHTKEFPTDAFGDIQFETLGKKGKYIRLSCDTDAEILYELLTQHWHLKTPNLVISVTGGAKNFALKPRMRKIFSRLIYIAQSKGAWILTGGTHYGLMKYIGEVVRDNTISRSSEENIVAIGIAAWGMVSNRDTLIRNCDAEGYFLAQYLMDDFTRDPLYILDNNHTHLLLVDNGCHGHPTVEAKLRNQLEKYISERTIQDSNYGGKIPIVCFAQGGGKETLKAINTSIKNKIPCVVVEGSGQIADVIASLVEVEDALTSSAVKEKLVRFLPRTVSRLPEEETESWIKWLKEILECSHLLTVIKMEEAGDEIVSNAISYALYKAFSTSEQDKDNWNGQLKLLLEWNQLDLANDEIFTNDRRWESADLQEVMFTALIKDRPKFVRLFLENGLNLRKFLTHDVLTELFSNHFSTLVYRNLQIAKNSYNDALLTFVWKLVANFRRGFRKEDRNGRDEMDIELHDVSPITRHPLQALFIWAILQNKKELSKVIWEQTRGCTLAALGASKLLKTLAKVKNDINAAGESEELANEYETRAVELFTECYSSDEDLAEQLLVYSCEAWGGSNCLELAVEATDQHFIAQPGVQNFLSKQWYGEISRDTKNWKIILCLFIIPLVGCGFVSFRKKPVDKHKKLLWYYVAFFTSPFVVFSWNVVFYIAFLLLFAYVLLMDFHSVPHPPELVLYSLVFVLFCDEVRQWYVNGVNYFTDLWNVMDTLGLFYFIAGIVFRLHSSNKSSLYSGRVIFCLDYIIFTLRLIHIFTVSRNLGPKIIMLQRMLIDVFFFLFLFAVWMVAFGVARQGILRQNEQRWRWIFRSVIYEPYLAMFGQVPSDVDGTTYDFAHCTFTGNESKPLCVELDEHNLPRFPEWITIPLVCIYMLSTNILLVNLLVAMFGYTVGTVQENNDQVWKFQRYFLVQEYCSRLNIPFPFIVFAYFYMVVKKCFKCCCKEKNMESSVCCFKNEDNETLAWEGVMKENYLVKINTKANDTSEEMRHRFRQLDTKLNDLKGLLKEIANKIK

On to `Cc1c(N(Cc2ccc(F)c(C(F)(F)F)c2)S(=O)(=O)c2ccc(C(=O)O)cc2)sc2ccccc12` [Compound 306, N-(3-Methyl-benzo[b]thiophen-2-yl)-N-(4-fluoro-3-trifluoromethyl-benzyl)-4-carboxy-benzenesulfonamide], for which, in test [1], the IC50 (as a rule, the point on the concentration scale where inhibition reaches its midpoint) came to 0.8 nM and the inhibition at 0.2 µM is 102%. The concentration for half-maximal inhibition (IC50) in test [2] (Freshly transfected cells) was found to be 4 nM. In test [3] (setting [4]), the inhibition in vivo at 3 mg/kg came to 20%, the inhibition in vivo at 10 mg/kg stood at 38%, the inhibition in vivo at 17.8 mg/kg was 57% and the inhibition in vivo at 30 mg/kg worked out at 68%. Moreover, the inhibition in vivo at 56 mg/kg in test [3] (setting [4]) was found to be 77%. For the same molecule, the inhibition in vivo at 100 mg/kg in test [3] (4 h, 100 mg/kg p.o., vehicle HPbCD, Water, pretreatment 4 hr, read-out: Percent Inhibition) was 77%. The inhibition in vivo at 30 mg/kg in test [3] (6 h, HPbCD, pretreatment 6 hr, read-out: Percent Inhibition) turned out to be 69%. The ED50 (as a rule, the midpoint of the dose-response relation) in test [3] (vehicle HPbCD, Water, pretreatment 4 hr) worked out at 15 mg/kg.
Regarding `Cc1c(N(Cc2ccc(OC(F)(F)F)cc2)S(=O)(=O)c2ccc(C(=O)O)cc2)sc2ccccc12` [Compound 496, N-(3-Methyl-benzo[b]thiophen-2-yl)-N-(4-trifluoromethoxy-benzyl)-4-carboxy-benzenesulfonamide], in test [1], the IC50 stood at 0.8 nM and the inhibition at 0.2 µM came to 101%. The IC50 in test [2] (Cryopreserved cells) came out at 1.4 nM. The inhibition in vivo at 30 mg/kg in test [3] (2 h, Water, pretreatment 2 hr, read-out: Percent Inhibition) came to 74%. The inhibition in vivo at 0.3 mg/kg in test [3] (4 h, 0.3 mg/kg p.o., HPbCD, pretreatment 4 hr, read-out: Percent Inhibition) amounted to 28%. Moreover, the inhibition in vivo at 1 mg/kg in test [3] (4 h, 1 mg/kg p.o., HPbCD, pretreatment 4 hr, read-out: Percent Inhibition) came to 32%. In test [3] (setting [5]), the inhibition in vivo at 3 mg/kg was 23% and the inhibition in vivo at 10 mg/kg came to 71%. Moreover, in test [3] (4 h, 5.6 mg/kg p.o., HPbCD, pretreatment 4 hr, read-out: Percent Inhibition), the inhibition in vivo at 5.6 mg/kg came out at 72%. Moreover, in test [3] (setting [6]), the inhibition in vivo at 10 mg/kg stood at 76%, the inhibition in vivo at 17.8 mg/kg is 64%, the inhibition in vivo at 30 mg/kg stood at 72% and the inhibition in vivo at 56 mg/kg was found to be 68%. Further, the ED50 in test [3] (HPbCD, pretreatment 4 hr) was determined as 3.5 mg/kg.
